According to PubChem BioAssay AID488803 (Sanford-Burnham Center for Chemical Genomics, 2010):
Active and inactive are the calls of the source.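 The calls were made as follows: active = mean IC50 below 10 µM; inactive = the rest.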

Molecular target: Apelin receptor (Homo sapiens) (UniProt P35414)
Assay: APJ antagonists, beta-arrestin recruitment, SAR follow-up, cell-based, luminescence, set 2 (AID 488803)
Conditions: CHO-K1 APJ PathHunter beta-arrestin, antagonist

Apelin receptor (Homo sapiens), sequence (P35414 whole entry, looked up): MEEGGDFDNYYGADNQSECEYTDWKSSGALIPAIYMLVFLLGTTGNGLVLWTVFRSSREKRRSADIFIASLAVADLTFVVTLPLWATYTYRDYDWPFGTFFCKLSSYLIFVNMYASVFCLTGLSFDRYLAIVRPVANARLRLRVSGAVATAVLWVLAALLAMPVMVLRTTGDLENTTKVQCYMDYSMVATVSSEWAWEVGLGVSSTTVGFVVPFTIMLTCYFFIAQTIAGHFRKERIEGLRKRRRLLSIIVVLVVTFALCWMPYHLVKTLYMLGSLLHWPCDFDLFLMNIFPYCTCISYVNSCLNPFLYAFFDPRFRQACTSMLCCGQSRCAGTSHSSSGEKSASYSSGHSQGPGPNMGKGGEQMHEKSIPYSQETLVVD

Row | IC50 | Structure (SMILES)
1 | inactive | Cc1cc(C)nc(SCc2cc(=O)c(OC(=O)c3cc([N+](=O)[O-])ccc3Cl)co2)n1
2 | > 79 µM (inactive) | Cc1ccccc1NCC(O)c1ccc(Cl)cc1 (stereo not drawn)
3 | > 79 µM (inactive) | C=CCOc1cccc(CSc2ncccn2)c1
